Experimental findings from patent US20250340561A1, “QUINAZOLINE COMPOUND FOR INDUCING DEGRADATION OF G12D MUTANT KRAS PROTEIN” (Astellas Pharma Inc., priority 2021, published 2025) are described below.

Assay [1] concerns phosphorylation of ERK (Thr202/Tyr204). The experiment in a line: Test Example 2: ERK phosphorylation inhibition action in AsPC-1, Cell ELISA. As to conditions: Homo sapiens, ASPC1, 24 h, AsPC-1 cells, 0% = 1 μM trametinib. It counts as cell-based, human. The procedure, abridged: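 AsPC-1 cells (KRAS G12D) treated 24 h with compound (6 points, 10 μM to 3.0 nM final) in RPMI 1640/10% FBS. Fixed with glyoxal; pERK Thr202/Tyr204 detected by In-Cell ELISA with 800 nm fluorescence. IC50 by Sigmoid-Emax regression, with DMSO set to 100% and 1 μM trametinib to 0%.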
A general note: ELISA stands for enzyme-linked immunosorbent assay.

Assay [2] deals with human G12D mutant KRAS-positive pancreatic cancer line AsPC-1. The experiment in a line: Test Example 3: non-anchorage-dependent cell growth inhibition, spheroid 3D cell culture. Format: cell-based. As to conditions: Homo sapiens, ASPC1, 144 h, AsPC-1 spheroid 3D culture, 6 days, CellTiter Glo 2.0. The procedure, abridged: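 AsPC-1 cells were grown as spheroids (5×10^2 cells/well, low-adhesion round-bottom plates). Next day they were treated with compound at 6 final concentrations from 10 μM to 3.0 nM for 6 days at 37 °C, and viability was read by CellTiter Glo luminescence. IC50 came from Sigmoid-Emax nonlinear regression, normalized between DMSO-treated and cell-free wells.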
In general terms: Cellular ATP, detected with luciferase, serves as a proxy for viable cell number.

Where two headings read alike, the source gives them in different places.

For the compound `COC[C@H](CN1CCOCC1)Oc1nc(N2C[C@@H]3C[C@H]2CN3)c2cc(C3CC3)c(-c3c(C)c(F)cc4[nH]ncc34)c(OCc3ccc(-c4cn([C@H](C(=O)N5C[C@H](O)C[C@H]5C(=O)N[C@@H](CO)c5ccc(-c6scnc6C)cc5)C(C)C)nn4)cc3)c2n1` [Example 55], the IC50 in assay [1] (read-out: IC50) was 38 nM; in assay [2] (read-out: IC50), 76 nM.
Take `Cc1ncsc1-c1ccc([C@H](CO)NC(=O)[C@@H]2C[C@@H](O)CN2C(=O)[C@H](C(C)C)n2cc(-c3ccc(COc4c(-c5c(C)c(F)cc6[nH]ncc56)c(C5CC5)cc5c(N6C[C@@H]7C[C@H]6CN7)nc(OC6CCOCC6)nc45)cc3)nn2)nc1` [Example 35]: the figures for the 50% inhibitory concentration (IC50) in assay [1] and in assay [2] were 55 nM and 43 nM, respectively.
The matching figures for `Cc1ncsc1-c1ccc([C@H](CO)NC(=O)[C@@H]2C[C@@H](O)CN2C(=O)[C@H](C(C)C)n2cc(-c3ccc(COc4c(-c5c(C)c(F)cc6[nH]ncc56)c(C5CC5)cc5c(N6C[C@@H]7C[C@H]6CN7)nc(OC6CCN(C7COC7)CC6)nc45)cc3)nn2)cc1` [Example 24]: 25 nM and 55 nM.

In general, IC50 refers to the concentration that inhibits the measured activity by half.
